Measurements from patent US20210405025A1, “IDENTIFYING COMPOUNDS FOR TREATING CANCER AND USE THEREOF” (THE UAB RESEARCH FOUNDATION, priority 2018, published 2021).
Structures can show the parent of a compound that is named as a salt. Where two headings read alike, the source gives them in different places.

System: relapsed AML cells
Assay: Drug sensitivity assay, 1,536-well, 3-day culture with individual approved drugs at 10 μM, viability by alamarBlue
Assay type: cell-based, human
Outline: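 Three-day exposure of primary AML cells to individual drugs in 1,536-well format, viability read as percent live cells. Cells were thawed, cultured overnight, sorted by FACS for viable blasts and plated at 4,000-4,500 cells/5 μL in cytokine-supplemented IMDM/BIT medium.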

[1] = number of relapsed AML cases out of 18 tested with >70% cell death, 10 μM, 3-day culture

CC(=O)Nc1ccc(C(=O)Nc2ccccc2N)cc1 [TACEDINALINE]
#Cases >70% cell death [1]: 4

CCCNCC(O)COc1ccccc1C(=O)CCc1ccccc1 (centres unmarked) [PROPAFENONE]
#Cases >70% cell death [1]: 1

CN1CCc2c(c3ccccc3n2Cc2ccccc2)C1 [MEBHYDROLIN]
#Cases >70% cell death [1]: 1

CCC(C)(C)c1ccc(CC(C)CN2C[C@@H](C)O[C@@H](C)C2)cc1 (some centres unmarked) [AMOROLFINE]
#Cases >70% cell death [1]: 9

[O-][n+]1ccccc1[S-].[O-][n+]1ccccc1[S-].[Zn+2] [PYRITHIONE ZINC]
#Cases >70% cell death: 7

Cc1nnc(NS(=O)(=O)c2ccc(N)cc2)s1 [SULFAMETHIZOLE]
#Cases >70% cell death [1]: 18

CC(C)C(=O)Nc1ccc([N+](=O)[O-])c(C(F)(F)F)c1 [FLUTAMIDE]
#Cases >70% cell death [1]: 2

COc1cc(C(=O)NCc2ccc(OCCN(C)C)cc2)cc(OC)c1OC [TRIMETHOBENZAMIDE HYDROCHLORIDE]
#Cases >70% cell death [1]: 1

CCN1CCN(Cc2ccc(-c3cc4c(N[C@H](C)c5ccccc5)ncnc4[nH]3)cc2)CC1 [AEE-788]
#Cases >70% cell death [1]: 13

CC[C@@H]([C@H](C)O)n1ncn(-c2ccc(N3CCN(c4ccc(OC[C@@H]5CO[C@@](Cn6cncn6)(c6ccc(F)cc6F)C5)cc4)CC3)cc2)c1=O [POSACONAZOLE]
#Cases >70% cell death [1]: 6

CN1CCN(c2ccc3nc(-c4c(N)c5c(F)cccc5[nH]c4=O)[nH]c3c2)CC1 [GFKI-258]
#Cases >70% cell death [1]: 16
